Source: patent US9206201B2, “Boronic acid bearing liphagane compounds as inhibitors of P13K-α and/or β” (COUNCIL OF SCIENTIFIC & INDUSTRIAL RESEARCH, priority 2012, dated 2015)
Read-outs that look alike come from different tables or passages of the source.

What was measured:
[1] = biological target: PI3K δ (Homo sapiens (Human), UniProt O00329); assay: PI3K inhibition assay, PI3K δ isoform; assay type: biochemical
Protocol: (§1) PI3K inhibition assay (PI3K Assay (Emmanuelle M, Huang Y, Yan H G et al. Targeting Protein Translation in Human Non-Small Cell Lung Cancer via Combined MEK and Mammalian Target of Rapamycin Suppression. Cancer Res 67:(23). (2007).) was carried out by PI3 Kinase activity/inhibitor assay kit, where PI3 kinase reaction was set up in Glutathione-coated strips/plate for inhibitor reaction. Kinase and inhibitors were pre-incubated for 10 minutes prior to the addition of PIP2 substrate. 5 μL of 5× kinase reaction buffer were added in each well followed by the further addition of 5 μL/well of PIP2 substrate. Then distilled H2O was added to each well so as to make up a final volume of 25 μL/well. Incubation was done at rt for 1 hour which was followed by washing the wells 3 times with 200 μL of 1×TBST per well and then 2 times with 200 μL of IX TBS per well. Then 100 μL of the Substrate TMB per well was added and then to keep for colour development in the dark for 5-20 minutes. However, appearance of the blue color to avoid over-development were monitored. 100 μL of the stop solution per well was used to stop the reaction. Readings were recorded at 450 nm.

[2] = biological target: PI3Kα (Homo sapiens (Human), UniProt P42336); assay: PI3K inhibition assay (PI3 Kinase activity/inhibitor assay kit), PI3Kα; assay type: biochemical; conditions: read-out: IC50 against PI3Kα
Sequence of PI3Kα (P42336 whole entry, looked up): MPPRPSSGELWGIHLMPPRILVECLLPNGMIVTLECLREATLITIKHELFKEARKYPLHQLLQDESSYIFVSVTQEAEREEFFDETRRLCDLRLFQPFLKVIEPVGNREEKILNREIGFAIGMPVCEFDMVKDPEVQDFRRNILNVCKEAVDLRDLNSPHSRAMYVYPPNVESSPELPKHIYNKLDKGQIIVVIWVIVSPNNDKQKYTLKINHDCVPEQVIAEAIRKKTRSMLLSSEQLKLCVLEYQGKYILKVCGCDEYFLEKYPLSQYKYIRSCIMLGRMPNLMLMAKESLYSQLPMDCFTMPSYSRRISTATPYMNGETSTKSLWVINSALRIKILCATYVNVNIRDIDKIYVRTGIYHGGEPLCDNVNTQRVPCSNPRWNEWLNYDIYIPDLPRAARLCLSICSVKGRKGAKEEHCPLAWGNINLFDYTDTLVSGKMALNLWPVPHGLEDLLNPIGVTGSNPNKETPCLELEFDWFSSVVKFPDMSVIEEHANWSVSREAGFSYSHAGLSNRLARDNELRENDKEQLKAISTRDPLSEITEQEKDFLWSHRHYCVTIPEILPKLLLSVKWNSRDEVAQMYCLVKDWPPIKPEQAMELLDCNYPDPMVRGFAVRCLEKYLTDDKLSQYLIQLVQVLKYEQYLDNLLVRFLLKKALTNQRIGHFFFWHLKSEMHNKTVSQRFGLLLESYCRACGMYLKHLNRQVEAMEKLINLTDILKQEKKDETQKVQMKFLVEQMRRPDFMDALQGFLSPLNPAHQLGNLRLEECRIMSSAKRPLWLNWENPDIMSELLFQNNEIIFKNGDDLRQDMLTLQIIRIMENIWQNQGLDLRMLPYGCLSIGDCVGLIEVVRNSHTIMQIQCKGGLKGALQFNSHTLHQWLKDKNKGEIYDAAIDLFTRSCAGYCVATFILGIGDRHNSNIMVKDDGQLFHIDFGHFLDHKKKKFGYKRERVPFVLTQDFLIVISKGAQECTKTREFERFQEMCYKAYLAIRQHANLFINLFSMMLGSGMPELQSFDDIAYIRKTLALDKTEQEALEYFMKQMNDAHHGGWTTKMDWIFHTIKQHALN
Sequence of PI3Kα (P27986 whole entry partner, looked up): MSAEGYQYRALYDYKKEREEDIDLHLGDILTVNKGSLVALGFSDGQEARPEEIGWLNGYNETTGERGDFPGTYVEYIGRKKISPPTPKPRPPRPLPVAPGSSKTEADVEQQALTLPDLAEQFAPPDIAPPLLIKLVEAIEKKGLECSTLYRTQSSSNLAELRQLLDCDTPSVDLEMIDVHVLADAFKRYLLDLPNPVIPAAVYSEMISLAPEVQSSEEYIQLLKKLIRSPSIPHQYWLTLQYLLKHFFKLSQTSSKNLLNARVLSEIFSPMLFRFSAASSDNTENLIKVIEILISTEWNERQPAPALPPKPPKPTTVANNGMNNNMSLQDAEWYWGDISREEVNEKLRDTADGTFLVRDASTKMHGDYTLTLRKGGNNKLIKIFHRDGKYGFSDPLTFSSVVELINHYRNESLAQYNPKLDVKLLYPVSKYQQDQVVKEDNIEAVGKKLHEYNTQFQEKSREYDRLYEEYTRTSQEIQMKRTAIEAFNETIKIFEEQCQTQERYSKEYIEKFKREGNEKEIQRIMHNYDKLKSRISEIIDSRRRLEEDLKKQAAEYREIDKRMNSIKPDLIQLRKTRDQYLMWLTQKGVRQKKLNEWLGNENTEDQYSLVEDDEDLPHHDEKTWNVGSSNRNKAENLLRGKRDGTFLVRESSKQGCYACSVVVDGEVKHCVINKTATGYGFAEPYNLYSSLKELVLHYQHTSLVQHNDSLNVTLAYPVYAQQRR

[3] = biological target: PI3Kβ (Homo sapiens (Human), UniProt P42338); assay: PI3K inhibition assay (PI3 Kinase activity/inhibitor assay kit), PI3Kβ; assay type: biochemical
Sequence of PI3Kβ (P42338 whole entry): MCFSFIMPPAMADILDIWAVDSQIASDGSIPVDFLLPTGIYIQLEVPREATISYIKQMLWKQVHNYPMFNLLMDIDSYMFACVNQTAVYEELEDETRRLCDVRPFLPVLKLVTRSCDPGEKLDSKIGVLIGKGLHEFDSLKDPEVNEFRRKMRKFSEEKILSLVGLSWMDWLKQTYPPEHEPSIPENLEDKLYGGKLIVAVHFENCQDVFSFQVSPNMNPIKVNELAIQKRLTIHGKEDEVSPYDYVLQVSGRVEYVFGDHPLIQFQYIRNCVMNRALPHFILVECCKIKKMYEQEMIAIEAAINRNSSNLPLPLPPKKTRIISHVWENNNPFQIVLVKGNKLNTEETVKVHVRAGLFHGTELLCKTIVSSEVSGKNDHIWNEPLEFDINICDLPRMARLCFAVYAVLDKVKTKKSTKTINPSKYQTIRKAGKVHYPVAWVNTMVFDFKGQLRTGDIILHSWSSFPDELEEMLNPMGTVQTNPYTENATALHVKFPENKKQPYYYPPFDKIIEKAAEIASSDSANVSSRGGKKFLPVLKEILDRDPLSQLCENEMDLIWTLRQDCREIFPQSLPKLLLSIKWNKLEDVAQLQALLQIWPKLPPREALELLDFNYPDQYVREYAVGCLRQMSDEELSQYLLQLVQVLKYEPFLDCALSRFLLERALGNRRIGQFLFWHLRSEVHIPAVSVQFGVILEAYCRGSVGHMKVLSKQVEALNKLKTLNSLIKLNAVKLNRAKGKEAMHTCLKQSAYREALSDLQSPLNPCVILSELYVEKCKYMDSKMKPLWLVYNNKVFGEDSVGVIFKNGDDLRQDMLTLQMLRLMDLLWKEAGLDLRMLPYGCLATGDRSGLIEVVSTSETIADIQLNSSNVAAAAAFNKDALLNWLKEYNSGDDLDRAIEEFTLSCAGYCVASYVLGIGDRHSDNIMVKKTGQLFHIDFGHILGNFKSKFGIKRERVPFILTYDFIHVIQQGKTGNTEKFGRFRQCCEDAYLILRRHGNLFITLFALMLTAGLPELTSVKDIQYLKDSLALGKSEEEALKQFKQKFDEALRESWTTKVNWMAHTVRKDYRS
Sequence of PI3Kβ (P27986 whole entry partner): as the sequence (P27986 whole entry partner, looked up) above
Protocol: as §1, with “Y, Yan H G” left out, “nm. The IC50 value of a drug measures the effectiveness of a compound in inhibiting biological or biochemical function. […]” for “nm.”

[4] = biological target: PI3K γ (Homo sapiens (Human), UniProt P48736); assay: PI3K inhibition assay, PI3K γ isoform; assay type: biochemical
Sequence of PI3K γ (P48736 whole entry, canonical isoform): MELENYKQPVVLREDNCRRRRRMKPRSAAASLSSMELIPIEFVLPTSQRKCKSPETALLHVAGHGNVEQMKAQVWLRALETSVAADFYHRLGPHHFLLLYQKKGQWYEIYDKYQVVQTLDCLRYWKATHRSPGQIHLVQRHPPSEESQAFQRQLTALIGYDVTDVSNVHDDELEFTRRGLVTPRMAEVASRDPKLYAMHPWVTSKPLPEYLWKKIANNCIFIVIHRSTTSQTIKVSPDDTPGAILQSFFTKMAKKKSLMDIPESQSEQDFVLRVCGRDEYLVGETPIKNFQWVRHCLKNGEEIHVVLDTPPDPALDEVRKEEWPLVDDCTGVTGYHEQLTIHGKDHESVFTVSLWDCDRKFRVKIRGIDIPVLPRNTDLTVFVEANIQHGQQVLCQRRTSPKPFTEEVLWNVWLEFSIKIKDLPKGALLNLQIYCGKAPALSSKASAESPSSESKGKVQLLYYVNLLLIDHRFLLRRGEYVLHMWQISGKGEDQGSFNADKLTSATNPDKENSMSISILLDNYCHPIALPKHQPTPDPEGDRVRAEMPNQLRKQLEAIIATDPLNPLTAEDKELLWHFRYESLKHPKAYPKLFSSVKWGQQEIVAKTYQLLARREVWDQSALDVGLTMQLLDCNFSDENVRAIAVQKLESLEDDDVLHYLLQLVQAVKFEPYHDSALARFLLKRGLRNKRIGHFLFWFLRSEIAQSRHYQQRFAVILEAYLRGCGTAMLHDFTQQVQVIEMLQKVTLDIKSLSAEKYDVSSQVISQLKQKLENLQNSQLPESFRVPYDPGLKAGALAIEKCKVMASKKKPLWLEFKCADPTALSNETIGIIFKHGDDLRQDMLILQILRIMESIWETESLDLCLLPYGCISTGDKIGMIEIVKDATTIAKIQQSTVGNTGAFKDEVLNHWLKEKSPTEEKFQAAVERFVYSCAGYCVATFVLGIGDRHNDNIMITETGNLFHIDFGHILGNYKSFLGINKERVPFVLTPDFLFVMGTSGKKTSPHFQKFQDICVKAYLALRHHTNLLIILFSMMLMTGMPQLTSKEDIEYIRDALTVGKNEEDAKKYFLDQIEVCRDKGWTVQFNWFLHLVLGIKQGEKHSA
Protocol: as §1

[5] = system: human cancer cell lines; assay: In vitro cell line based anticancer activity, human cancer cell lines; conditions: 10 μM
Description: (§2) The MTT assay (MTT Assay (Legrier M E, Yang C P, Yan H G et al. Targeting protein translation in human non small lung cancer via combined MEK and mammalian target of rapamycin suppression. Cancer Res 67:11300-8(2007).) is useful for measuring the effect of a wide range of compounds on the in vitro growth of either normal or cancer cell lines. The assay was set up in a 96-well, flat-bottomed polystyrene microtiter plate. 3-5000 cells were suspended per well in appropriate growth medium, and the cells were added to replicate wells (triplicates were preferred). It was preferable to add the cells to the required number of wells in the plate prior to adding the drugs or the test agents. After the cells were added to the plate, it was placed on the incubator for overnight incubation, while the agents to be tested were being prepared. After overnight incubation drugs or test compounds were added at defined concentrations to each set of replicate wells and incubated for 48 hrs in CO2 incubator. Most of these compounds were dissolved in dimethyl sulfoxide (DMSO) for the final addition. After 48 hr incubation, diluted the MTT stock solution ([…]) with an equal volume of tissue culture medium and added 20 μl of this solution directly to each well with a multichannel pipette. […] A standard micro plate reader with adjustable wavelength across the visible spectrum was used. […]

[6] = system: caco-2; assay: MTT cytotoxic assay, colon (caco-2) cell line; set-up: species or system human; conditions: 48 h, read-out: cell based IC50 (MTT)
Description: as §2

[7] = system: pAkt (Ser 473) in CACO-2 cells; assay: Immunofluorescence microscopic analysis of pAKT (serine 473); assay type: cell-based, human; conditions: 4 μM, 24 hr
Protocol: For immunofluorescence microscopic analysis, 4×10^4 CACO-2 cells/ml were seeded on 18-mm coverslips in 6-well plates, one day before experiment. […] Following treatment, cells were washed in PBS, followed by fixation in absolute methanol at −20° C. for 5 min^19. The fixed cells were blocked with 10% goat serum in PBS for 20 min at room temperature to eliminate non-specific binding of secondary antibody. Cells were incubated with polyclonal rabbit pAKT (serine 473) primary antibody (1:100 in 0.5% BSA in PBS; Santa Cruz Biotechnology) for 1 h at 25° C. in moist chamber, then washed and incubated with secondary antibody. The cells were washed and incubated for 45 min with a Texas red-conjugated goat antirabbit antibody (1:500 in 0.5% BSA in PBS; Santa Cruz Biotechnology) at 25° C. The coverslips were mounted on glass slides with 4′,6-diamidino-2-phenylindole-containing ProLong Gold Antifade mounting medium (Invitrogen) and visualized by fluorescence microscope (Olympus, IX81) under an Olympus 60× oil immersion objective lens. The negative controls were also used in which incubation of cells with primary antibody was omitted.
Results: Phosphorylation (activation) of Akt is associated with protection of cells from apoptosis^20 (K. Nicholson, N. Anderson. 2002. The protein kinase B/Akt signaling pathway in human malignancy. Cell signal 14: 381-395). […]

[8] = system: caco-2, colon human cancer cell line; assay: Cell cycle analysis by flow cytometry (propidium iodide); assay type: cell-based; conditions: caco-2, under similar conditions, concentration not given
Protocol: Analysis (Cell cycle (Waxman D J, Schwartz P S, Harnessing apoptosis for improved anti-cancer gene therapy, Cancer Res. 63:8563-8572(2003).) of a population of cells replication state can be achieved by fluorescence labeling of the nuclei of cells in suspension and then analyzing the fluorescence properties of each cell in the population. The experiment was performed using caco-2, colon human cancer cell line. Cells were seeded in 6 well plates at the concentration of 3×10^5 cells/ml/well. Plate was incubated in CO2 incubator for overnight. After overnight incubation test sample(s) were added at desired concentration, sparing wells for negative and positive control and incubated for 24 hrs. After 24 hr incubation, cell were trypsinized along with test sample from each well was extracted using a micropippete and separately transferred into 15 ml centrifuge tubes. Tubes were centrifuged at 3000 rpm for 5 min. […] Reading was taken on flow cytometer (BD Biosciences).
Results: Cell cycle is the life cycle of a cell. […] In the present study, the effect of compound E on the DNA content by cell cycle phase distribution was assessed by using colon (caco-2) cell line. […] Cells (2×10^6/ml/6-well plate), exposed to different concentrations of compound E were stained with propidium iodide (PI) to determine DNA fluorescence and cell cycle phase distribution. […]

[9] = system: caco-2 colon human cancer cell line; assay: Annexin-V apoptotic assay by flow cytometry; assay type: cell-based; conditions: caco-2, under similar conditions, concentration not given
Protocol: The cell death status was analysed using Annexin-V (Annexin-V apoptotic assay (Yunqing Li, FadilaGuessous, SherwinKwon, Manish Kumar. PTEN Has Tumor-Promoting Properties in the Setting of Gain-of-Function p53 Mutations, 2008 Cancer Res; 68: (6) (2008).) Flow cytometery. The experiment was performed using caco-2 colon human cancer cell line. Cells were seeded in 6 well plates at the concentration of 2×10^5 cells/ml/well. Plates were incubated in CO2 incubator for overnight. After overnight incubation test sample(s) were added at desired concentration, sparing wells for negative and positive control and incubated for 48 hrs. After 48 hr incubation, cell were trypsinized and separately transferred into 15 ml centrifuge tubes. Tubes were centrifuged at 3000 rpm for 5 min. The supernatant was discarded and pellet was resuspended in 1 ml filtered PBS and centrifuged at 2000 rpm for 5 min. After 5 mins supernatant was discarded and pellet was resuspended in […] of 1× binding buffer to make cell suspension. From this suspension, 100 μl of cells is transferred in falcon tube and then 10 μl of propidium iodide (PI) and 5 μl Annexin-V antibody were added and incubated for 30 min in dark. After 30 min incubation in dark, apoptosis were analysed by flow cytometer (BD Biosciences).
Overall, there was a concentration dependent net increase in late apoptotic cell population (FIG. 7).

Sequence of PI3K δ (O00329 whole entry, canonical isoform): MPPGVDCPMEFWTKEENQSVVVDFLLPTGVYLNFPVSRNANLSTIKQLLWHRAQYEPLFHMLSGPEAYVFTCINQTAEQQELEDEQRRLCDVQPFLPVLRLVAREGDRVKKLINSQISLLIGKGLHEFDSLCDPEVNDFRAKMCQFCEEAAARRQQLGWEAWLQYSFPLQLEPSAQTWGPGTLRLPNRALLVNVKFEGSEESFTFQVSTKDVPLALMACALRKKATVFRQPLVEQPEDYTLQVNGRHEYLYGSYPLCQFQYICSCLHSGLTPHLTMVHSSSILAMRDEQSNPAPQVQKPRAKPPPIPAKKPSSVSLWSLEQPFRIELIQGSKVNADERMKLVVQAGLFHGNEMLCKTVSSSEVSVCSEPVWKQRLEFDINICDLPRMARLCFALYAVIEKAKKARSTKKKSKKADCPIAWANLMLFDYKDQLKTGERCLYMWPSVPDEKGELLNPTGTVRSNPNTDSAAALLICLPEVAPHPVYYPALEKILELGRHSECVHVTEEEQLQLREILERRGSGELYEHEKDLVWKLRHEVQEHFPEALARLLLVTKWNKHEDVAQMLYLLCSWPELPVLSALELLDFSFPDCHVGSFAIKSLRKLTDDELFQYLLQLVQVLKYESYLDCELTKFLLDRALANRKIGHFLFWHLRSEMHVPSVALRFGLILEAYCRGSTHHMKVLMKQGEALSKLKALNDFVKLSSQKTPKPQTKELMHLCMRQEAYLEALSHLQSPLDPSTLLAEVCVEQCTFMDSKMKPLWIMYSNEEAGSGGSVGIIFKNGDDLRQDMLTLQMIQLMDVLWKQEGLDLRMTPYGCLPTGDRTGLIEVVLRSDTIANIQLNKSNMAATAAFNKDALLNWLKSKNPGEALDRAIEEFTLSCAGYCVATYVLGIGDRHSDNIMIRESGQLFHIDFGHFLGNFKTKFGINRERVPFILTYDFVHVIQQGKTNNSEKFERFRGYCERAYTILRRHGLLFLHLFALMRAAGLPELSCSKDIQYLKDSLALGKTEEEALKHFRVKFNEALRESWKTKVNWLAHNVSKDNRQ
Sequence of PI3K δ (P27986 whole entry partner, canonical isoform): as the sequence (P27986 whole entry partner, looked up) above

Compound | IC50 [1] | IC50 [2] | IC50 ([3]; read-out: PI3K (IC50) β) | IC50 [4] | optimal growth inhibition [5] | IC50 ([3]; read-out: IC50 against PI3Kβ) | IC50 [6] | effect on pAkt (Ser 473) [7] | percentage of cells in sub-G0 phase [8] | percentage of cells in late apoptotic phase [9]
CC1(C)CCCC2(C)c3c(oc4c(B(O)O)c(O)c(O)cc34)CCC12 (centres unmarked) [Compound AZ] | 303000 nM | 23 nM | 5700 nM | 85400 nM | – | – | – | – | – | –
C=C(CC/C=C(\C)CCC=C(C)C)c1cc2cc(OC)c(OC)cc2o1 [Compound A] | – | 140 nM | – | – | > 74% | 100 nM | 2400 nM | – | – | –
Liphagal | – | – | – | – | – | – | – | inhibition of pAKT | 64.9% | 42.7%
